Source: ChEMBL document CHEMBL1201862, “PubChem BioAssay data set” (2004)
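Each compound was tested at five concentrations against cells in 96-well plates for 48 hours. At the GI50, growth is halved.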 The source made the active and inactive calls. No stated cut-off is given here; in the data, active = GI50 up to about 1.1 µM and inactive = higher.

What was measured:
Test in all cases: NCI anticancer screen, dose series, 48 h
EKVX = tested on: EKVX
UACC-257 = tested on: UACC-257
HOP-18 = tested on: HOP-18
M19-MEL = tested on: M19-MEL
UACC-62 = tested on: UACC-62
NCI-H460 = tested on: NCI-H460
K562 = tested on: K562
TK-10 = tested on: TK-10
CCRF-CEM = tested on: CCRF-CEM
SK-OV-3 = tested on: SK-OV-3
A549 = tested on: A549
DLD-1 = tested on: DLD-1
COLO 205 = tested on: COLO 205
M14 = tested on: M14
RXF 393 = tested on: RXF 393
KM-20L2 = tested on: KM-20L2
HOP-62 = tested on: HOP-62
OVCAR-5 = tested on: OVCAR-5
DMS-114 = tested on: DMS-114
UO-31 = tested on: UO-31
U-251 = tested on: U-251
SR = tested on: SR
LXFL 529 = tested on: LXFL 529
NCI-H522 = tested on: NCI-H522
DMS-273 = tested on: DMS-273
786-0 = tested on: 786-0
MOLT-4 = tested on: MOLT-4
HCT-116 = tested on: HCT-116
ACHN = tested on: ACHN
RXF 631 = tested on: RXF 631
HCT-15 = tested on: HCT-15
SW-620 = tested on: SW-620
A498 = tested on: A498
OVCAR-4 = tested on: OVCAR-4
SN12C = tested on: SN12C
HT-29 = tested on: HT-29
NCI-H226 = tested on: NCI-H226
LOX IMVI = tested on: LOX IMVI
SNB-78 = tested on: SNB-78
CAKI-1 = tested on: CAKI-1
SNB-75 = tested on: SNB-75
Malme-3M = tested on: Malme-3M
HOP-92 = tested on: HOP-92
OVCAR-3 = tested on: OVCAR-3
SNB-19 = tested on: SNB-19
HL-60 = tested on: HL-60
HCC 2998 = tested on: HCC 2998
RPMI-8226 = tested on: RPMI-8226
OVCAR-8 = tested on: OVCAR-8
KM12 = tested on: KM12
NCI-H23 = tested on: NCI-H23
SF-268 = tested on: SF-268
IGROV-1 = tested on: IGROV-1
XF498 = tested on: XF498

## COC(=O)C(C(=O)C(=O)Nc1ccccc1OC)c1csc(-n2nc(-c3ccccc3)cc2-c2ccccc2)n1 (centres undefined)
EKVX
  GI50: 43.1 µM (inactive)
UACC-257
  GI50: > 100 µM (inactive)
HOP-18
  GI50: 14.8 µM (inactive)
M19-MEL
  GI50: > 100 µM (inactive)
UACC-62
  GI50: > 100 µM (inactive)
NCI-H460
  GI50: > 100 µM (inactive)
K562
  GI50: > 100 µM (inactive)
TK-10
  GI50: > 100 µM (inactive)
CCRF-CEM
  GI50: > 100 µM (inactive)
SK-OV-3
  GI50: > 100 µM (inactive)
A549
  GI50: > 100 µM (inactive)
DLD-1
  GI50: > 100 µM (inactive)
COLO 205
  GI50: > 100 µM (inactive)
M14
  GI50: > 100 µM (inactive)
RXF 393
  GI50: 89.5 µM (inactive)
KM-20L2
  GI50: > 100 µM (inactive)
HOP-62
  GI50: > 100 µM (inactive)
OVCAR-5
  GI50: > 100 µM (inactive)
DMS-114
  GI50: 49.5 µM (inactive)
UO-31
  GI50: 54.7 µM (inactive)
U-251
  GI50: > 100 µM (inactive)
SR
  GI50: 90.8 µM (inactive)
LXFL 529
  GI50: > 100 µM (inactive)
NCI-H522
  GI50: > 100 µM (inactive)
DMS-273
  GI50: > 100 µM (inactive)
786-0
  GI50: > 100 µM (inactive)
MOLT-4
  GI50: 65.2 µM (inactive)
HCT-116
  GI50: > 100 µM (inactive)
ACHN
  GI50: > 100 µM (inactive)
RXF 631
  GI50: > 100 µM (inactive)
HCT-15
  GI50: > 100 µM
SW-620
  GI50: > 100 µM (inactive)
A498
  GI50: > 100 µM (inactive)
OVCAR-4
  GI50: > 100 µM (inactive)
SN12C
  GI50: > 100 µM (inactive)
HT-29
  GI50: 59.3 µM (inactive)
NCI-H226
  GI50: > 100 µM (inactive)
LOX IMVI
  GI50: > 100 µM (inactive)
SNB-78
  GI50: > 100 µM (inactive)
CAKI-1
  GI50: > 100 µM (inactive)
SNB-75
  GI50: 8.97 µM (inactive)
Malme-3M
  GI50: > 100 µM (inactive)
HOP-92
  GI50: > 100 µM (inactive)
OVCAR-3
  GI50: > 100 µM (inactive)
SNB-19
  GI50: > 100 µM (inactive)
HL-60
  GI50: > 100 µM (inactive)
HCC 2998
  GI50: > 100 µM (inactive)
RPMI-8226
  GI50: > 100 µM (inactive)
OVCAR-8
  GI50: > 100 µM (inactive)
KM12
  GI50: 95.9 µM (inactive)
NCI-H23
  GI50: > 100 µM (inactive)
SF-268
  GI50: > 100 µM (inactive)
IGROV-1
  GI50: > 100 µM (inactive)
XF498
  GI50: > 100 µM (inactive)
